Source: patent US8017326B2, “Methods of modulating cell death based on the Bit-1/AES regulatory pathway” (Sanford-Burnham Medical Research Institute, priority 2002, dated 2011)
Where a SMILES comes first, the peptide text is derived from it. Where no end group is shown, it is not given here. The star is where a group is joined. Cbz = O=C(OCc1ccccc1)*; CH2F = FC*

Key:
CHO cells = assay: Deletion analysis, cell death by trypan blue exclusion; format: cell-based, Chinese hamster; conditions: 10 μg construct, trypan blue exclusion 48 hours after transfection
Method: The amino-terminal portion of Bit1 (residues 16-40) is hydrophobic and can serve as a transmembrane domain or signal peptide sequence. When the hydrophobicity of this portion was reduced by substitution of glycine 22 and glycine 38 by serine, Bit1 apoptotic activity was reduced.
Deletion analysis was performed as follows. The indicated deletion mutants were cloned into vector pEGFP-C1, and 10 μg of each plasmid construct transfected into CHO cells. Cell death was measured by trypan blue exclusion 48 hours after transfection.
To delineate the pro-apoptotic domain of AES, a series of AES deletion mutants was prepared as amino-terminal fusions with GFP in vector pEGFP-C1. Various AES deletion constructs (10 μg) were transfected into CHO cells, and cell death measured by trypan blue exclusion 48 hours after transfection.

[1] = system: AES-induced apoptosis in 293T cells; assay: Caspase inhibitors and anti-apoptotic proteins against AES; format: cell-based, human
Description: (§1) 293T cells were also co-transfected with Bit1 or AES and the caspase inhibitor proteins crmA and XIAP.

[2] = system: Bit1-induced apoptosis in 293T cells; assay: Caspase inhibitors and anti-apoptotic proteins against Bit1; format: cell-based, human; conditions: cytosolic Bit1
Description: as §1

[3] = system: Bit1-induced apoptosis in HEK 293 cells; assay: Co-transfection of Bit1 with anti-apoptotic proteins; format: cell-based, human; conditions: HEK 293 cells co-transfected with Bit1
Method: Co-transfections were performed with cells plated on non-coated dishes transfected with 5 μg Bit1 plasmid alone or together with 10 μg dominant negative (DN) R-Ras, or activated H-Ras plasmid (Zou et al., Proc. Natl. Acad. Sci. USA 96: 13813-13818 (1999)). […] Expression of the transfected proteins was confirmed by immunoblotting. Apoptosis was assayed as described above.

[4] = system: Bit1-induced apoptosis in HEK 293 cells; assay: Extracellular matrix proteins and Bit1-induced apoptosis, trypan blue staining; format: cell-based, human; conditions: HEK 293 cells plated onto coated dishes, 10 μg Bit1 plasmid, 48 hours
Method: Several extracellular matrix proteins were assayed for the ability to modulate Bit1-mediated apoptosis. Cells were plated onto bacterial culture dishes pre-coated overnight with fibronectin (Chemicon; Temecula; CA), vitronectin (SIGMA; St. Louis, Mo.) or type I collagen (SIGMA), and transfected and assayed for apoptosis as described above.
To analyze integrin involvement in protecting attached cells against the pro-apoptotic effect of Bit1, Bit1 cell lines expressing either α5β1 or αvβ1 as the main fibronectin receptor were compared. The two cell lines attach equally well to fibronectin but, like cytoplasmically truncated α5β1, αvβ1 fails to protect cells against apoptosis induced by serum deprivation (Zhang et al., supra, 1995; and Matter and Ruoslahti, supra, 2001).
Experiments with extracellular matrix proteins were performed as follows. Cells were plated onto uncoated tissue culture plates or onto bacterial culture plates coated with fibronectin, vitronectin or collagen, and allowed to attach in the presence of serum. The attachment was equal on all of these surfaces. The cells were then transfected with 10 μg of Bit1 expression plasmid; where indicated, cells were treated with a control IgG of unrelated specificity or monoclonal anti-human α5 antibody (Chemicon), both at 10 μg/ml. Cell death was measured by trypan blue staining 48 hours after the transfection.

Bit1 in HeLa cells = assay: Localization of C-terminally tagged Bit1 in cells induced to undergo apoptosis; format: cell-based; conditions: 0.5 μM staurosporin
Description: Colocalization of Bit1 with an endoplasmic reticulum or golgi marker was not observed.

[5] = system: Bit1-AES complex in HeLa cells; assay: Co-immunoprecipitation of Bit1-AES complex, cells plated on fibronectin or collagen; format: cell-based; conditions: HeLa cells plated on fibronectin versus collagen, quantification of gel bands, 24 h after transfection
Method: In these experiments, HeLa cells were plated on fibronectin or collagen before transfection with pCMV-Myc-Bit1 (3 μg) and pCMV-flag-AES (3 μg) plasmids. Cell lysates were harvested 24 h after transfection and immunoprecipitated with anti-flag and immunoblotted with anti-myc. The total amount of DNA used was adjusted to 10 μg with empty vector in each transfection. The expression of the transfected AES in each sample was confirmed by immunoblotting 20 μl of the whole extract with anti-flag as is shown in FIG. 6C, lower boxes in B and C.
Thus, a low level of Bit1/AES complex correlated with cell survival and a high level is associated with apoptosis.

## AES residues 57-88: AES deletion mutant, amino-terminal fusion with GFP (SEQ ID NO:9) (MQRHYVMYYEMSYGLNIEMHKQAEIVKRLNGI; also: amino-terminal fusion with GFP; UniProt Q08117 57-88, looked up, fragment)
CHO cells
  pro-apoptotic activity of deletion constructs: efficiently induced apoptosis

## Bcl-2: anti-apoptotic protein, expression construct pcDNA3-Bcl-2
[1]
  effect on apoptosis induced by AES: partially effective
[2]
  effect on apoptosis induced by Bit1: no effect
[3]
  effect on apoptosis induced by Bit1: little or no effect

## COC(=O)C[C@H](NC(=O)[C@H](C)NC(=O)[C@@H](NC(=O)OCc1ccccc1)C(C)C)C(=O)CF [z-VAD-fmk] (Cbz-Val-Ala-Asp(OMe)-CH2F)
[1]
  effect on apoptosis induced by AES: ineffective
[2]
  effect on apoptosis induced by Bit1: ineffective

## AES residues 1-56: AES deletion mutant, amino-terminal fusion with GFP (MMFPQSRHSGSSHLPQQLKFTTSDSCDRIKDEFQLLQAQYHSLKLECDKLASEKSE; cysteine pairing not given here; also: amino-terminal fusion with GFP; UniProt Q08117 1-56, looked up, fragment)
CHO cells
  pro-apoptotic activity of deletion constructs: no apoptotic activity

## collagen: type I collagen coated on culture dishes (SIGMA)
[4]
  protection from Bit1-induced apoptosis: could not confer the same protective effect

## CN[C@@H]1C[C@H]2O[C@@](C)([C@@H]1OC)n1c3ccccc3c3c4c(c5c6ccccc6n2c5c31)C(=O)NC4 [staurosporin]
Bit1 in HeLa cells
  localization of C-terminally tagged Bit1: released into the cytoplasm

## AES residues 57-105: AES deletion mutant, amino-terminal fusion with GFP (SEQ ID NO:8) (MQRHYVMYYEMSYGLNIEMHKQAEIVKRLNGICAQVLPYLSQEHQQQVL; also: amino-terminal fusion with GFP; UniProt Q08117 57-105, looked up, fragment)
CHO cells
  pro-apoptotic activity of deletion constructs: efficiently induced apoptosis

## fibronectin
[4]
  protection from Bit1-induced apoptosis: largely protected
[5]
  reduction in Bit1/AES complex on fibronectin: approximately 75%
